Measurements taken from ChEMBL document CHEMBL5150068, “Structure-Based Design of Tropane Derivatives as a Novel Series of CCR5 Antagonists with Broad-Spectrum Anti-HIV-1 Activities and Improved Oral Bioavailability” (J Med Chem, 2022).
“And” between values parts separate entries of the source, which are not always exact repeats. Identical values can stand only once.

Assays:
[1] = biological target: C-C chemokine receptor type 5 (Homo sapiens, UniProt P51681); assay: Antagonist activity at CCR5 (unknown origin) expressed in HEK293 cells co-expressing Galpha16 assessed as intracellular calcium change incubated for 15 mins by Fluo-4 AM calcium flux assay; type: functional, cell-based
Chain of C-C chemokine receptor type 5 (P51681 whole entry): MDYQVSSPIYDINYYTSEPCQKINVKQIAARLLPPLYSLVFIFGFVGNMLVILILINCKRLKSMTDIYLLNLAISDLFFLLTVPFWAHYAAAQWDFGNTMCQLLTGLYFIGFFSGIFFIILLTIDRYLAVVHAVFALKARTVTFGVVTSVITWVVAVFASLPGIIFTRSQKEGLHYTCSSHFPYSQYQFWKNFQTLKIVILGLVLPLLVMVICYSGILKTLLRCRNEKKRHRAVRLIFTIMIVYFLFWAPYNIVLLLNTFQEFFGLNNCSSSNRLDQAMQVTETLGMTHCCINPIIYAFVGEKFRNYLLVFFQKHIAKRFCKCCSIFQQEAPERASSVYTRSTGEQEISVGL

[2] = system: Human immunodeficiency virus 1; assay: Antiviral activity against HIV-1 Ba-L infected in human TZM-bl cells measured after 48 hrs incubation by luciferase based analysis; type: functional, organism-based; conditions: Human immunodeficiency virus 1, Ba-L
[3] = Cytotoxicity against human TZM-bl cells incubated for 48 hrs by MTT assay; type: toxicity, cell-based
[4] = in vitro; conditions: human, TZM-bl cells
Description: Therapeutic index, ratio of CC50 for human TZM-bl cells to EC50 for antiviral activity against HIV-1 Ba-L

[5] = system: Human immunodeficiency virus 1; assay: Antiviral activity against HIV-1 SF162 infected in human TZM-bl cells measured after 48 hrs incubation by luciferase based analysis; type: functional, organism-based; conditions: Human immunodeficiency virus 1, SF162, TZM-bl
[6] = system: Human immunodeficiency virus 1; assay: Antiviral activity against HIV-1 YU-2 infected in human TZM-bl cells measured after 48 hrs incubation by luciferase based analysis; type: functional, organism-based; conditions: tzm-bl

Row | SMILES | IC50 [1] [nM] | EC50 [2] [nM] | CC50 at 48 h [3] [nM] | selectivity ratio [4] | EC50 [5] [nM] | EC50 [6]
1 | Cc1nnc(C(C)C)n1[C@@H]1C[C@H]2CC[C@@H](C1)N2CC[C@H](NC(=O)C1CCC(F)(F)CC1)c1cscn1 | 67.4 | 78 | > 200000 | 2560 | – | –
2 | Cc1nnc(C(C)C)n1[C@@H]1C[C@H]2CC[C@@H](C1)N2CC[C@H](NC(=O)C1CCCC1)c1ccc(C#N)s1 | > 10000 | > 200000 | > 200000 | – | – | –
3 | COCc1nnc(C(C)C)n1[C@@H]1C[C@H]2CC[C@@H](C1)N2CC[C@H](NC(=O)C1CCC(F)(F)CC1)c1ccsc1 | 2.49 | 30 | 72900 | 2430 | – | –
4 | Cc1nnc(C(C)C)n1[C@@H]1C[C@H]2CC[C@@H](C1)N2CC[C@H](NC(=O)C1CCC(F)(F)CC1)c1ccc(C#N)s1 | > 10000 | > 200000 | > 200000 | – | – | –
5 | CC(=O)N[C@@H](CCN1[C@@H]2CC[C@H]1C[C@H](n1c(C)nnc1C(C)C)C2)c1cccs1 | 15 | – | 40500 | 36.8 | 1100 | –
6 | Cc1nnc(C(C)C)n1[C@@H]1C[C@H]2CC[C@@H](C1)N2CC[C@H](NC(=O)C1CCC(F)(F)CC1)c1ccsc1Cl | 5.34 | 540 | > 200000 | > 370 | – | –
7 | Cc1ccsc1[C@H](CCN1[C@@H]2CC[C@H]1C[C@H](n1c(C)nnc1C(C)C)C2)NC(=O)C1CCCC1 | 18.9 | – | > 200000 | > 6900 | – | 29 nM and 78 nM
8 | CC(=O)Nc1cccc(C(=O)N[C@@H](CCN2[C@@H]3CC[C@H]2C[C@H](n2c(C)nnc2C(C)C)C3)c2cccs2)c1 | 40.4 | 3390 | > 200000 | > 59 | – | –
9 | Cc1nnc(C(C)C)n1[C@@H]1C[C@H]2CC[C@@H](C1)N2CC[C@H](NC(=O)C1CCCC1)c1ccsc1Cl | 4.36 | 910 | > 200000 | > 219 | – | –
10 | Cc1nnc(C(C)C)n1[C@@H]1C[C@H]2CC[C@@H](C1)N2CC[C@H](NC(=O)C(F)(F)F)c1csc2ccccc12 | 680 | – | > 200000 | – | > 40000 | –
11 | COc1ccc(S(N)(=O)=O)cc1C(=O)N[C@@H](CCN1[C@@H]2CC[C@H]1C[C@H](n1c(C)nnc1C(C)C)C2)c1cccs1 | 1380 | > 200000 | > 200000 | – | – | –
